Measured values published in article PMC8230565, “Bisavenathramide Analogues as Nrf2 Inductors and Neuroprotectors in In Vitro Models of Oxidative Stress and Hyperphosphorylation” (Antioxidants, 2021).
Entries after “also recorded” stand apart in the source; their conditions may differ.

How the values were obtained:
SH-SY5Y cells [1] = experiment: Neuroprotection against rotenone/oligomycin A in SH-SY5Y cells (MTT); assay type: cell-based; conditions: Homo sapiens, 24 h, 1 µM compound, rotenone 30 µM + oligomycin A 10 µM, read-out: % Neuroprotection ± SEM at 1 µM (rotenone/oligomycin A)
Description: To evaluate the compounds for their neuroprotective effect in an oxidative stress model, we selected the rotenone (30 μM) and oligomycin A (10 μM) (R/O) cocktail, which disturbs the flow of electrons in the mitochondrial respiratory chain. Similarly, SH-SY5Y cells were preincubated with compounds 3 at 1 μM for 24 h. Then, they were co-incubated in the presence of R/O for a further 24 h, evaluating cell viability by the MTT reduction method.
Thus, the R/O combination constitutes a good model of oxidative stress and neurodegeneration with a mitochondrial origin, and has been broadly employed to evaluate potential hit compounds for the treatment of neurodegenerative diseases. Furthermore, treatment of laboratory animals with rotenone is known to induce many features associated to Parkinson’s disease, such as selective nigrostriatal dopaminergic degeneration and the appearance of α-synuclein cytoplasmic inclusions, which are associated with oxidative damage.

SH-SY5Y cells [2] = experiment: as above; assay type: cell-based; conditions: increasing concentrations; R/O 30/10 µM
[3] = biological target: AChE (Electrophorus electricus) (Electrophorus electricus, UniProt O42275); experiment: Acetylcholinesterase inhibition (Ellman's method); assay type: biochemical; conditions: 10 μM compound; read-out: % Inhibition of EeAChE at 10 μM
AChE (Electrophorus electricus), sequence (O42275 24-633): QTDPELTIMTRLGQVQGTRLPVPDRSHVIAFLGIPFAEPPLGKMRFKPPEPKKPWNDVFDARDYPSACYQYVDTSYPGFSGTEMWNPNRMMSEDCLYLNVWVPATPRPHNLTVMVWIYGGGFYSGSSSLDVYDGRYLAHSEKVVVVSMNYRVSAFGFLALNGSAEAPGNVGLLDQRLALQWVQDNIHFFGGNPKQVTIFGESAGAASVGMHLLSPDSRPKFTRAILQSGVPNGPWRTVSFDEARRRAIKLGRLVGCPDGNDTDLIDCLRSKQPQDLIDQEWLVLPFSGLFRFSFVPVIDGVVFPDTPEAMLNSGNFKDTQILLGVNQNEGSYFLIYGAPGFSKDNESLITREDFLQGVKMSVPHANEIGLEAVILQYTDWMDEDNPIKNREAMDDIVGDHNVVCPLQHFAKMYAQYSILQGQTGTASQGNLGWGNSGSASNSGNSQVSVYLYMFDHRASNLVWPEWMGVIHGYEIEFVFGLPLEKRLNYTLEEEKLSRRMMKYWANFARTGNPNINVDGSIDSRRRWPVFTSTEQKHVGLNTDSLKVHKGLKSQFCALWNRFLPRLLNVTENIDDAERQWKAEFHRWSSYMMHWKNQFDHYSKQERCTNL
Description: Ellman’s method was employed to determine the inhibitory capacity of the compounds against AChE (Electrophorus electricus). The compounds were studied at 10 μM concentration, at room temperature, using PBS (0.1 M, pH 8) as solvent. Transparent 48-well microplates (COSTAR 3548) were used and, in each one, a blank was included. The compounds were incubated with the enzyme (0.09 U/mL) and with DTNB (0.35 mM) for 10 min. Afterwards, the enzyme substrate acetylthiocholine (0.35 mM) was added to a final volume of 1 mL. The microplate was incubated at room temperature for 15 min. Then, the absorbance was measured at 420 nm using the microplate reader FluoStar Optima (BMG Labtech, Ortenberg, Baden-Württemberg, Germany). The enzymatic activity was calculated by subtracting the blank absorbance from the sample absorbance and dividing the result by the absorbance of the maximum activity subtracted from blank absorbance, and the result was multiplied by one hundred to give a percentage. The inhibitory activity was calculated by subtracting the enzymatic activity from one hundred. Selected compounds were assayed at 0.3, 1, 3, 10, and 30 μM concentrations to obtain inhibition curves. The results were plotted versus concentration to obtain IC50 values through sigmoidal non-lineal adjustment. All the experiments were performed at least in triplicate.
Bisavenanthramide B-6 and heliotropamide A have been identified as acetylcholinesterase inhibitors. This precedent, coupled with our interest in the potential characterization of our compounds as multitarget-directed ligands, led us to investigate them as inhibitors of this enzyme, an important anti-Alzheimer target.

[4] = test system: neuroblastoma SHSY5Y cells; experiment: Cytotoxicity in SHSY5Y cells (MTT reduction); assay type: cell-based
Description: SH-SY5Y cells (ECACC 94030304, Porton Down, Salisbury, UK), from passages between 4 and 16 after defreezing, were maintained in a MEM/F12 containing […] nonessential amino acids and supplemented with 10% fetal bovine serum (FBS), glutamine 1 mM, 50 units/mL of penicillin, and 50 μg/mL of streptomycin (GIBCO, Madrid, Spain). Cells were harvested in a […] flask and incubated at 37 °C with wet atmosphere and 5% CO2, carrying out passages 1:4 twice a week. For neuroprotection experiments, cells were seeded in 96-well plates at a density of 60,000 cells/well. For the toxicity experiments, cells were treated with the compounds under assay before reaching confluence, in MEM/F12 with 1% FBS.
Due to their presumed electrophilicity, the neurotoxicity of our compounds was investigated by investigating their influence on cell viability in the neuroblastoma SHSY5Y cell line prior to other studies in cell cultures. […] It is relevant to note that, despite their reputation for toxicity, interest in covalent drugs has undergone a renaissance, and about 30% of the recently marketed drugs belong to this class.

Nrf2 = Nrf2 induction, luciferase assay in AREc32 cells; assay type: cell-based; conditions: Arec32, 24 h, read-out: CD (concentration that doubles luciferase activity)
Description: AREc32 cells (kindly shared by Dr. Professor Ronald C. Wolf, University of Dundee, Dundee, UK) were grown in Dulbecco’s modified Eagle medium (DMEM) with glutamax, supplemented with 10% fetal bovine serum (FBS), 1% of antibiotics penicillin–streptomycin, and geneticin (0.8 mg/mL, G418) (GIBCO, Madrid, Spain). Cells were harvested in a […] flask with 11 mL of the specified medium, incubated at 37 °C and 5% CO2, and they were transferred to a new flask every 4–6 days, when the confluence was around 80%. Cells were seeded in 96-well white plates (20,000 cells/well) using 100 μL/well. After 24 h, cells were treated with compounds at desired concentrations (1, 5, 10, 15 μM) for 24 h, including tert-butyl hydroquinone (TBHQ, 10 μM) as a positive control. Another 24 h later, luciferase activity was measured through a bioluminescence assay using a “Luciferase assay system” (Promega E1500, Madison, WI, USA), following the protocol given by the provider, and quantifying luminescence in an Orion II microplate luminometer (Berthold, Germany). Measurements were performed by duplicate, and the values were normalized to basal luminescence considered as 1. Nrf2 induction potency was expressed as CD values, i.e., the concentrations required to double the luciferase activity, and are calculated from dose–response curves generated by plotting fold induction of control conditions vs. compound concentration, and fitted by non-linear regression and data interpolated to value 2.
The ability of our compounds to induce Nrf2 was evaluated in the AREc32 cell line, an MCF7 stable clone that is transfected with eight copies of the luciferase reporter gene immediately after the ARE sequence. Therefore, Nrf2 activation and the subsequent transcription of the genes dependent on the ARE element also leads to expression of luciferase, which can be quantitated using a luminescence assay. AREc32 cells were incubated for 24 h with 0.3, 3, 10, 30, and 60 μM concentrations of compounds 3, and a luminescence measurement allowed CD values to be obtained. This parameter characterizes the Nrf2-inducing ability of each compound and represents the concentration required to double the luciferase activity compared to its basal expression.

For COC(=O)C1=C(C)N(CCc2ccccc2)C(=O)/C1=C\c1ccc(O)c(O)c1 [Compound 3i, Methyl (Z)-4-(3,4-Dihydroxybenzylidene)-2-methyl-5-oxo-1-phenethyl-4,5-dihydro-1H-pyrrole-3-carboxylate], the % neuroprotection against rotenone/oligomycin A toxicity at 1 µM (SH-SY5Y cells [1]) was greater than 90%, the “neuroprotective effect against rotenone/oligomycin A by concentration” value (SH-SY5Y cells [2]) was “statistically significant neuroprotective effect at 0.1 and 1 µM; also recorded: this activity was lost at 10 µM” and the inhibition at 10 µM [3] was 27.2%. For the same compound, the “toxicity assessment” value [4] was “suitable toxicity profile”, the LD50 ([4]; MTT reduction) was 92.8 ± 4.6 µM and the EC (2-fold luciferase activity) (Nrf2) was less than 10 µM.
